Active and inactive are the calls of the source. The calls are words filed in the database; no cut-off is given here.
What was measured:
[1] = molecular target: T1, Sodium-dependent noradrenaline transporter (Homo sapiens, UniProt P23975); assay: Inhibition of human NET
[2] = molecular target: Sodium-dependent dopamine transporter (Homo sapiens, UniProt Q01959); assay: Inhibition of DAT (unknown origin) at 10 uM relative to control
[3] = molecular target: Mu-type opioid receptor (Homo sapiens, UniProt P35372); assay: Agonist activity at human mu-opioid receptor stably expressed in CHO cells assessed as inhibition of forskolin-induced cAMP accumulation at 30 uM preincubated with compound for 10 mins followed by forskolin induction and measured after 30 mins by LANCE Ultra cAMP assay relative to control; type: functional, cell-based; details: time 40.0 min
Mu-type opioid receptor, sequence (P35372 whole entry): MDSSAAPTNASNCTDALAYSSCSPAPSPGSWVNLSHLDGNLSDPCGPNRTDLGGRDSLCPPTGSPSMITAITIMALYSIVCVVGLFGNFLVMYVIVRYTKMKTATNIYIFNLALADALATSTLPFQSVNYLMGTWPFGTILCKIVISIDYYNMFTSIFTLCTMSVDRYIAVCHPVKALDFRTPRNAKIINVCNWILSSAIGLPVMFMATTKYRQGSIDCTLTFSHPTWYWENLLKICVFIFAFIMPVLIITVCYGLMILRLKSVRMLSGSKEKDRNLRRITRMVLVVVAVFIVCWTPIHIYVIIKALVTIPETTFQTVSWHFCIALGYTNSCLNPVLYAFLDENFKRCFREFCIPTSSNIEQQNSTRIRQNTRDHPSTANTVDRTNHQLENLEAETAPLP

[4] = molecular target: Glutamate NMDA receptor; GRIN1/GRIN2A (Homo sapiens, UniProt Q05586+Q12879); assay: Antagonist activity at human GluN1/GluN2A NMDA receptor expressed in HEK293 cells assessed as reduction in glutamate induced current at -70 mV holding potential by whole-cell patch clamp technique; type: cell-based
Glutamate NMDA receptor; GRIN1/GRIN2A, sequence (Q12879 whole entry, other chains not shown): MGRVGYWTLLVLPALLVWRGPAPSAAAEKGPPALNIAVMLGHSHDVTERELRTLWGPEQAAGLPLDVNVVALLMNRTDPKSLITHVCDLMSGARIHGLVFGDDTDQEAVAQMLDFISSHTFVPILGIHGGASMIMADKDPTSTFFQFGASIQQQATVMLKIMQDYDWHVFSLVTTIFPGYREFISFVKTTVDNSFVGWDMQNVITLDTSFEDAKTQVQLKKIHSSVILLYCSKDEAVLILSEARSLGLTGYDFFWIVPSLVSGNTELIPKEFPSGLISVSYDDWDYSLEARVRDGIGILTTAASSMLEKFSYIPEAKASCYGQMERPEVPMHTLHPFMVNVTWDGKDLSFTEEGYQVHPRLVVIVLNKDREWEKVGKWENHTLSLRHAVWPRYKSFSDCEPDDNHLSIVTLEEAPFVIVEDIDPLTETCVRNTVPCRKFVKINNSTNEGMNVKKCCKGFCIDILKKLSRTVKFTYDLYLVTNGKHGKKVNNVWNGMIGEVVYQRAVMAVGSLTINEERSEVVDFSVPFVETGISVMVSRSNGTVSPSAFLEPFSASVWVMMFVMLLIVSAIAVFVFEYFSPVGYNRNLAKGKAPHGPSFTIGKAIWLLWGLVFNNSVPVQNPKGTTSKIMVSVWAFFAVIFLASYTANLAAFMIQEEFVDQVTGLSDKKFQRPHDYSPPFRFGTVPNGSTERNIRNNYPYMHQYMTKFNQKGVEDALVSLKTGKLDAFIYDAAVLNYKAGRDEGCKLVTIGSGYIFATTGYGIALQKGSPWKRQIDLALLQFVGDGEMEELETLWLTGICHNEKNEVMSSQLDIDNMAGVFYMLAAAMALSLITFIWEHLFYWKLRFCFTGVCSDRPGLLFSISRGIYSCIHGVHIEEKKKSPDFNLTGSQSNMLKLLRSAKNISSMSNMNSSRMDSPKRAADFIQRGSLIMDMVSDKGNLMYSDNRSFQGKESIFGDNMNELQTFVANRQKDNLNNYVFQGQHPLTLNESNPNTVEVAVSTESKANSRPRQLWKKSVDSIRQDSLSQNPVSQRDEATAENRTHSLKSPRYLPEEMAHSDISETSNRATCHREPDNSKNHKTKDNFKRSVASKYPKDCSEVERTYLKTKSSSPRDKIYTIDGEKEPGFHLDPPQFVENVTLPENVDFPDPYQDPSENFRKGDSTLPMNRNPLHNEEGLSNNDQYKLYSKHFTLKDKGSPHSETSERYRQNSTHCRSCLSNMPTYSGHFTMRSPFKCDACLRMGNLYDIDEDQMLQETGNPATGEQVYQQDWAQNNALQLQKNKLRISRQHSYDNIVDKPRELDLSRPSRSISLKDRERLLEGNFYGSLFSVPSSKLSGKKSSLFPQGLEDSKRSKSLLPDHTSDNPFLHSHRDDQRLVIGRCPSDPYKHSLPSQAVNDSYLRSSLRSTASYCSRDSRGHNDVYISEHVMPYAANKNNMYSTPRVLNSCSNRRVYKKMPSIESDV

[5] = Metabolic stability in human liver microsome assessed as hepatic clearance in presence of NADPH measured upto 60 mins by LC-MS/MS analysis; type: ADME; details: liver microsomes
[6] = Metabolic stability in human liver microsome assessed as intrinsic clearance in presence of NADPH measured upto 60 mins by LC-MS/MS analysis; type: ADME; details: liver microsomes, read-out: CLH
[7] = Metabolic stability in human liver microsome assessed as half life in presence of NADPH measured upto 60 mins by LC-MS/MS analysis; type: ADME; details: liver microsomes
[8] = Metabolic stability in mouse liver microsome assessed as hepatic clearance in presence of NADPH measured upto 60 mins by LC-MS/MS analysis; type: ADME; details: liver microsomes
[9] = Metabolic stability in mouse liver microsome assessed as intrinsic clearance in presence of NADPH measured upto 60 mins by LC-MS/MS analysis; type: ADME; details: liver microsomes, read-out: CLH
[10] = Metabolic stability in mouse liver microsome assessed as half life in presence of NADPH measured upto 60 mins by LC-MS/MS analysis; type: ADME; details: liver microsomes
[11] = Half life in ICR mouse at 10 mg/kg, po measured upto 24 hrs by LC-MS/MS analysis; type: ADME, organism-based; details: in vivo
[12] = Tmax in ICR mouse at 10 mg/kg, po measured upto 24 hrs by LC-MS/MS analysis; type: ADME, organism-based; details: in vivo
[13] = Cmax in ICR mouse at 10 mg/kg, po measured upto 24 hrs by LC-MS/MS analysis; type: ADME, organism-based; details: in vivo
[14] = AUC (0 to t) in ICR mouse at 10 mg/kg, po measured upto 24 hrs by LC-MS/MS analysis; type: ADME, organism-based; details: in vivo
[15] = AUC (0 to infinity) in ICR mouse at 10 mg/kg, po measured upto 24 hrs by LC-MS/MS analysis; type: ADME, organism-based; details: in vivo
[16] = MRT (0 to t) in ICR mouse at 10 mg/kg, po measured upto 24 hrs by LC-MS/MS analysis; type: ADME, organism-based; details: in vivo
[17] = Half life in ICR mouse at 10 mg/kg, ip measured upto 24 hrs by LC-MS/MS analysis; type: ADME, organism-based; details: in vivo
[18] = Tmax in ICR mouse at 10 mg/kg, ip measured upto 24 hrs by LC-MS/MS analysis; type: ADME, organism-based; details: in vivo
[19] = Cmax in ICR mouse at 10 mg/kg, ip measured upto 24 hrs by LC-MS/MS analysis; type: ADME, organism-based; details: in vivo
[20] = AUC (0 to t) in ICR mouse at 10 mg/kg, ip measured upto 24 hrs by LC-MS/MS analysis; type: ADME, organism-based; details: in vivo
[21] = AUC (0 to infinity) in ICR mouse at 10 mg/kg, ip measured upto 24 hrs by LC-MS/MS analysis; type: ADME, organism-based; details: in vivo
[22] = MRT (0 to infinity) in ICR mouse at 10 mg/kg, ip measured upto 24 hrs by LC-MS/MS analysis; type: ADME, organism-based; details: in vivo
[23] = tested on: Mus musculus; assay: Antidepressant activity in C57BL/6J mouse assessed as reduction in of immobility time at 10 to 30 mg/kg, po by forced swim test; type: functional, organism-based; details: dose 10-30 mg/kg
[24] = tested on: Mus musculus; assay: Antidepressant activity in C57BL/6J mouse assessed as reduction in of immobility time at 10 to 30 mg/kg, po in presence of quinidine by forced swim test; type: functional, organism-based; details: dose 10-30 mg/kg
[25] = Hepatotoxicity against human HepG2 cells assessed as reduction in cell viability at 50 uM incubated for 48 hrs by celltiter-luminescence assay; type: toxicity, cell-based; details: hepg2, 48 h
[26] = tested on: HEK293; assay: Nephrotoxicity against human HEK293 cells assessed as reduction in cell viability at 200 uM incubated for 48 hrs by celltiter-luminescence assay; type: toxicity, cell-based; details: hek293, 48 h
[27] = Hepatotoxicity against human HepG2 cells assessed as inhibition of cell proliferation incubated for 48 hrs by celltiter-luminescence assay; type: toxicity, cell-based
[28] = Nephrotoxicity against human HEK293 cells assessed as inhibition of cell proliferation incubated for 48 hrs by celltiter-luminescence assay; type: toxicity, cell-based
[29] = molecular target: Voltage-gated inwardly rectifying potassium channel KCNH2 (Homo sapiens, UniProt Q12809); assay: Inhibition of hERG expressed in CHO cells assessed as inhibition of channel current at holding potential of -80 mV by automated patch clamp method; type: toxicity, cell-based
Voltage-gated inwardly rectifying potassium channel KCNH2, sequence (Q12809 whole entry): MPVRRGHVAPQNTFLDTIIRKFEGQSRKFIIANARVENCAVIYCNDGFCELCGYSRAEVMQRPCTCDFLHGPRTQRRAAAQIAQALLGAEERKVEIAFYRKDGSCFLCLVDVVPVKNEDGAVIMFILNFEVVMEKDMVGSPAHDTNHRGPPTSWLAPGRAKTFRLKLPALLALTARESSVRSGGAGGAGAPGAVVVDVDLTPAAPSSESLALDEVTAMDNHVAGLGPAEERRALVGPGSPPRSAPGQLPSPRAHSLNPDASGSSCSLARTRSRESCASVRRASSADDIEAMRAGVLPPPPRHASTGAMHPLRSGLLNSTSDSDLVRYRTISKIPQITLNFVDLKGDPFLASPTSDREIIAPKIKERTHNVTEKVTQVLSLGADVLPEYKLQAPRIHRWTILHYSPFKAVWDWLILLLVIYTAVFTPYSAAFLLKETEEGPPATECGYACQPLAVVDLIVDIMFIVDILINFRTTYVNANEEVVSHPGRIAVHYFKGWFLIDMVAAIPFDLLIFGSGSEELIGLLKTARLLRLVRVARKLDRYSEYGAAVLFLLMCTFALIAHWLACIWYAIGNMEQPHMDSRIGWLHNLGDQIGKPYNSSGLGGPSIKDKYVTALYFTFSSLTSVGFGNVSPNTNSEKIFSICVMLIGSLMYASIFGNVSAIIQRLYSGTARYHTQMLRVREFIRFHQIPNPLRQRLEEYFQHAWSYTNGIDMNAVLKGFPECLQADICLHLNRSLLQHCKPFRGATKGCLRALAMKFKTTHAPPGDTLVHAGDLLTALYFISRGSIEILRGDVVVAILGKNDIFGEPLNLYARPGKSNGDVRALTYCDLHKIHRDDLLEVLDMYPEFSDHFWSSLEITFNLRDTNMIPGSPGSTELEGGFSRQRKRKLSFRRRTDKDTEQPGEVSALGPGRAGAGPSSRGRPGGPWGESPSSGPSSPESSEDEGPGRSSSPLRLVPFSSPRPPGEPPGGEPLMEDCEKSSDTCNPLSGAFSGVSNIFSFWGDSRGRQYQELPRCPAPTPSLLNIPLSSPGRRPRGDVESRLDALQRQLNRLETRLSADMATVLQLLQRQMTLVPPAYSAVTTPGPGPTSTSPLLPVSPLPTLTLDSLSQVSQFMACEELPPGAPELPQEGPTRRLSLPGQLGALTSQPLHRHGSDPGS

[30] = molecular target: Sodium-dependent serotonin transporter (Homo sapiens, UniProt P31645)
Sodium-dependent serotonin transporter, sequence (P31645 whole entry): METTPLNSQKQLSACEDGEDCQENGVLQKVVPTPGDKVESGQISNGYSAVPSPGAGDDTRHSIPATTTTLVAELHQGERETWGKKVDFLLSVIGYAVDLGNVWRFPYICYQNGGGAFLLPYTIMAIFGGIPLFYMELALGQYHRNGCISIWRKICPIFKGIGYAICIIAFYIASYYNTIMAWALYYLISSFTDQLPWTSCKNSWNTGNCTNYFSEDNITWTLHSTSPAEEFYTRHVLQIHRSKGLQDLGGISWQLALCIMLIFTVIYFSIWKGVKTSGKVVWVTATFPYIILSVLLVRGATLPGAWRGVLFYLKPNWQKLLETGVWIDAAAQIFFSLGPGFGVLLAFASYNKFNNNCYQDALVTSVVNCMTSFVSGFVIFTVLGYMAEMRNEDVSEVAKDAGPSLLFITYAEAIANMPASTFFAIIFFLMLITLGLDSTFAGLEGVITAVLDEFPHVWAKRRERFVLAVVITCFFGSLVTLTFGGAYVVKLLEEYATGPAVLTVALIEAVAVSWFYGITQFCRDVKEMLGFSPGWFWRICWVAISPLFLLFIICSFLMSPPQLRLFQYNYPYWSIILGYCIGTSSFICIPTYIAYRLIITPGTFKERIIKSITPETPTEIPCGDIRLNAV

[31] = molecular target: T1, Sodium-dependent noradrenaline transporter; assay: Inhibition of NET (unknown origin) at 10 uM relative to control
[32] = Selectivity index, ratio of IC50 for inhibition of human GluN1/GluN2A NMDA receptor expressed in HEK293 cells to IC50 for inhibition of SERT (unknown origin); type: cell-based
[33] = Metabolic stability in human liver microsome assessed as hepatic extraction ratio in presence of NADPH measured upto 60 mins by LC-MS/MS analysis; type: ADME; details: liver microsomes, read-out: ERH
[34] = Metabolic stability in mouse liver microsome assessed as hepatic extraction ratio in presence of NADPH measured upto 60 mins by LC-MS/MS analysis; type: ADME; details: liver microsomes, read-out: ERH
[35] = tested on: Mus musculus; assay: Antidepressant activity in ip dosed C57BL/6J mouse assessed as reduction in of immobility time by forced swim test; type: functional, organism-based; details: dose 10-20 mg/kg
[36] = tested on: Mus musculus; assay: Antidepressant activity in C57BL/6J mouse assessed as reduction in of immobility time at 20 mg/kg, ip by forced swim test; type: functional, organism-based
[37] = Hepatotoxicity against human HepG2 cells assessed as reduction in cell viability at 100 to 200 uM incubated for 48 hrs by celltiter-luminescence assay; type: toxicity, cell-based; details: hepg2, 48 h, dose 100-200 µM
[38] = tested on: HEK293; assay: Nephrotoxicity against human HEK293 cells assessed as reduction in cell viability at 100 to 200 uM incubated for 48 hrs by celltiter-luminescence assay; type: toxicity, cell-based; details: hek293, 48 h, dose 100-200 µM

**Q.** For `COc1ccc2c(c1)[C@]13CCCC[C@@H]1[C@H](C2)N(C)CC3` [DEXTROMETHORPHAN], which IC50 [1] is on record?
**A.** […]

Sodium-dependent dopamine transporter, sequence (Q01959 whole entry): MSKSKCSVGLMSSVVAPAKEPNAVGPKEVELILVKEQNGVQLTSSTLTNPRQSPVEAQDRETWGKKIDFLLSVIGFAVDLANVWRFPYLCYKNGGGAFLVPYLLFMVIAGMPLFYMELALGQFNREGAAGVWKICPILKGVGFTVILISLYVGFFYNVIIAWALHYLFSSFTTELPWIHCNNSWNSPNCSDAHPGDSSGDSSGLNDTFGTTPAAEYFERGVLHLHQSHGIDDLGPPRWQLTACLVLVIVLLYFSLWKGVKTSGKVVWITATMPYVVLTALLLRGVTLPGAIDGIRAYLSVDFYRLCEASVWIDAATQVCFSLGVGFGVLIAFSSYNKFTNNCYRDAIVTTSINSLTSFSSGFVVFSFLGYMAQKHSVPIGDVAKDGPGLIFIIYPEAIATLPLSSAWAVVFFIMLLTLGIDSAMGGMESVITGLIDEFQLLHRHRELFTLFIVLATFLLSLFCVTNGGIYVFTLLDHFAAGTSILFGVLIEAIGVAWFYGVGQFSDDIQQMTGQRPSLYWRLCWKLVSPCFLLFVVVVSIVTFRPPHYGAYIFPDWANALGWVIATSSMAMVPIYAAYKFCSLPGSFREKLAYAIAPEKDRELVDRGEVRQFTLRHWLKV
T1 sequence (P23975 whole entry): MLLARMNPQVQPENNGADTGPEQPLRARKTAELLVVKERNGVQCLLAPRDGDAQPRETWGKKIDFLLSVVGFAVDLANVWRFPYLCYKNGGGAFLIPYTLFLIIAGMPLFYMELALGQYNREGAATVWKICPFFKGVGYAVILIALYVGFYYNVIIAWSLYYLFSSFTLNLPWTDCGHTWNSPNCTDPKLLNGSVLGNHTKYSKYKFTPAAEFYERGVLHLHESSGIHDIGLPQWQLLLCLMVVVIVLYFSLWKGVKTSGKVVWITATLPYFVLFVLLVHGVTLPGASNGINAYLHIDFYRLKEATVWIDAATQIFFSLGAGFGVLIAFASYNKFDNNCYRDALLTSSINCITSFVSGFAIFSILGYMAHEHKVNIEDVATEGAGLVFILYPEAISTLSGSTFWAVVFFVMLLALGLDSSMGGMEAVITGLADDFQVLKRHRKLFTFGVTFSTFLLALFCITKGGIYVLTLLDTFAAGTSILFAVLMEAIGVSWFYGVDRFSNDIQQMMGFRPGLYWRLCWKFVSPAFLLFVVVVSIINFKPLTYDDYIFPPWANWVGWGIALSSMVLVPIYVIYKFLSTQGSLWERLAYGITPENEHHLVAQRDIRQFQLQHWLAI

**Q.** And the inhibition [2]?
**A.** inactive

**Q.** And the inhibition [3]?
**A.** 5%

**Q.** What about the IC50 [4] of the same molecule?
**A.** 1.04 µM

**Q.** What about the CLhep predicted [5] of the same molecule?
**A.** 10.5 mL/min/kg

**Q.** And the CLint scaled [6]?
**A.** 20.9 mL/min/kg

**Q.** And the half-life [7]?
**A.** 2.32 h

**Q.** What about the CLhep predicted [8] of the same molecule?
**A.** 72 mL/min/kg

**Q.** And the CLint scaled [9]?
**A.** 360 mL/min/kg

**Q.** And the half-life [10]?
**A.** 0.433 h

**Q.** And the half-life [11]?
**A.** 3.17 h

**Q.** What about the Tmax [12] of the same molecule?
**A.** 0.83 h

**Q.** What about the Cmax [13] of the same molecule?
**A.** 57.7 ng/mL

**Q.** What about the AUC(0-t) at 24 h [14] of the same molecule?
**A.** 198 ng·h/mL

**Q.** What about the AUC(0-inf) [15] of the same molecule?
**A.** 207 ng·h/mL

**Q.** What about the MRT last at 24 h [16] of the same molecule?
**A.** 5.1 h

**Q.** And the half-life [17]?
**A.** 1.93 h

**Q.** What about the Tmax [18] of the same molecule?
**A.** 8.4 min

**Q.** What about the Cmax [19] of the same molecule?
**A.** 720 ng/mL

**Q.** And the AUC(0-t) at 24 h [20]?
**A.** 817 ng·h/mL

**Q.** What about the AUC(0-inf) [21] of the same molecule?
**A.** 820 ng·h/mL

**Q.** What about the MRT inf [22] of the same molecule?
**A.** 1.33 h

**Q.** What about the Activity [23] of the same molecule?
**A.** inactive

**Q.** What about the Activity [24] of the same molecule?
**A.** Active

**Q.** What about the Activity [25] of the same molecule?
**A.** Non-toxic

**Q.** And the Activity [26]?
**A.** Toxic

**Q.** And the IC50 at 48 h [27]?
**A.** > 200 µM

**Q.** What about the IC50 at 48 h [28] of the same molecule?
**A.** > 200 µM

**Q.** And the IC50 [29]?
**A.** 13 µM

**Q.** For `CN1CC[C@@]23CCCC[C@@H]2[C@@H]1Cc1ccc(N)cc13`, which IC50 [30] is on record?
**A.** 1040 µM

**Q.** What about the inhibition [31] of the same molecule?
**A.** 4%

**Q.** And the inhibition [2]?
**A.** 11%

**Q.** What about the inhibition [3] of the same molecule?
**A.** 11%

**Q.** What about the Ratio IC50 [32] of the same molecule?
**A.** 3.35

**Q.** And the IC50 [4]?
**A.** 3.5 µM

**Q.** What about the CLhep predicted [5] of the same molecule?
**A.** 11 mL/min/kg

**Q.** What about the CLint scaled [6] of the same molecule?
**A.** 23.2 mL/min/kg

**Q.** And the half-life [7]?
**A.** 2.08 h

**Q.** What about the hepatic extraction ratio at 1 h [33] of the same molecule?
**A.** 0.525

**Q.** What about the CLhep predicted [8] of the same molecule?
**A.** 38.9 mL/min/kg

**Q.** And the CLint scaled [9]?
**A.** 68.4 mL/min/kg

**Q.** And the half-life [10]?
**A.** 2.28 h

**Q.** What about the hepatic extraction ratio at 1 h [34] of the same molecule?
**A.** 0.423

**Q.** And the half-life [11]?
**A.** 3.24 h

**Q.** What about the Tmax [12] of the same molecule?
**A.** 0.42 h

**Q.** What about the Cmax [13] of the same molecule?
**A.** 1380 ng/mL

**Q.** What about the AUC(0-t) at 24 h [14] of the same molecule?
**A.** 2710 ng·h/mL

**Q.** And the AUC(0-inf) [15]?
**A.** 2720 ng·h/mL

**Q.** And the MRT last at 24 h [16]?
**A.** 2.45 h

**Q.** What about the half-life [17] of the same molecule?
**A.** 2.92 h

**Q.** What about the Tmax [18] of the same molecule?
**A.** 4.8 min

**Q.** What about the Cmax [19] of the same molecule?
**A.** 1360 ng/mL

**Q.** What about the AUC(0-t) at 24 h [20] of the same molecule?
**A.** 2520 ng·h/mL

**Q.** What about the AUC(0-inf) [21] of the same molecule?
**A.** 2520 ng·h/mL

**Q.** And the MRT inf [22]?
**A.** 2.64 h

**Q.** What about the Activity [35] of the same molecule?
**A.** Dose-dependent-effect

**Q.** What about the Activity [36] of the same molecule?
**A.** Active

**Q.** What about the Activity [37] of the same molecule?
**A.** Non-toxic

**Q.** What about the Activity [38] of the same molecule?
**A.** Non-toxic

**Q.** And the IC50 at 48 h [27]?
**A.** > 200 µM

**Q.** And the IC50 at 48 h [28]?
**A.** > 200 µM

**Q.** And the IC50 [29]?
**A.** 22.1 µM

— ChEMBL document CHEMBL6114989, “D-morphinan analogs with favorable pharmacokinetic profiles as dual-acting antidepressants” (Eur J Med Chem, 2025)
